Here are results for 92 molecules from the pKa sets of Baltruschat and Czodrowski (2020).

In turn, `Cc1cc(N2CCCC2)cc(/C=C/c2cccc(C(F)(F)F)c2)[nH+]1` came in with a pKa of 9.43.
Molecule `Cn1c(-c2ccc(C[NH+](C)C)cc2)cc2onc(-c3ccccc3)c2c1=O` showed a pKa of 8.38.
The result for `CS(=O)(=O)c1ccc(-c2nc3c(c(=O)[nH]2)COCC3)cc1` reads 7.31; that for `CC(C)N(CCCCOCC(=O)[O-])c1cnc(-c2ccccc2)c(-c2ccccc2)n1`, 3.38.
The result for `O=C([O-])c1ccc(-c2nc(-c3cccc(C(F)(F)F)c3)cs2)cc1` reads 4.1; that for `Cc1cc(C)nc(N2CCC3(CCCN(Cc4c[nH]c5ccccc45)C3=O)CC2)n1`, 4.94; that for `O=C([O-])c1ccccc1Nc1ccc(CCc2ccc(Cl)c(Cl)c2)cc1`, 4.39.
To `COc1ccc(OC)c(S(=O)(=O)N2CCC(CN3CC[NH+](Cc4ccc(F)cc4)CC3)CC2)c1` belongs 7.32.
In the case of `CCc1ccc(-c2cnc(C)nc2NC2CCCC2)cc1`, the pKa stood at 6.8.
Take `C/C(=C\c1ccc(C)cn1)[C@@H]1C[C@@H]2O[C@]2(C)CCC[C@H](C)[C@H](O)[C@@H](C)C(=O)C(C)(C)[C@@H](O)CC(=O)O1`: the pKa came out at 4.5.
The result for `COc1ccc(SC)c2c1C[C@@H]1[C@@H](C2)OCC[NH+]1C` reads 6.25; that for `Cc1nc2ccccn2c1C(=O)NCc1ccc(-c2ccccc2)cc1`, 4.7.
`NC1=[NH+]c2ccccc2CC1`: the pKa was determined as 9.55.
As for `CCCCC(=O)N1CCC(CNc2nc3c(s2)CCOc2ccc(F)cc2-3)CC1`, the pKa amounted to 3.69.
The result for `CS(=O)(=O)Nn1c(=O)[nH]c2cc(C(F)(F)F)c(N3CCCOCC3)cc2c1=O` reads 8.4; that for `O=c1[nH]c(-c2ccc(C(F)(F)F)cc2)nc2c1CCOC2`, 7.87; that for `CS(=O)(=O)Nn1c(=O)[nH]c2cc(C(F)(F)F)c(N)cc2c1=O`, 8.6.
To `C[NH+](C)CC1CCc2cc(NC(=O)c3ccc(-c4ccc(F)cc4)cc3)ccc2C1` (configuration not stated) belongs 9.1; to `O=c1cc(CSc2cccc(F)c2F)nc2cc(-c3ccco3)[nH]n12`, 7.5; to `COc1ccc(-c2ccc(C(=O)Nc3ccc4c(c3)CCC(C[NH+](C)C)C4)cc2)cc1` (configuration not stated), 9.1.
The result for `CCOc1ccc2nc(S(N)(=O)=O)sc2c1` reads 8.36; that for `Cc1ncc(-c2ccc(C(F)(F)F)cc2)c(NC2C3CC4CC(C3)CC2C4)n1` (configuration not stated), 6; that for `CC(=O)N1CCC(CNc2nc3c(s2)CCCc2ccc(F)cc2-3)CC1`, 4.31.
`C/C(=C\c1cc(C)ccn1)[C@@H]1C[C@@H]2O[C@]2(C)CCC[C@H](C)[C@H](O)[C@@H](C)C(=O)C(C)(C)[C@@H](O)CC(=O)O1` came in with a pKa of 5.5.
The result for `O=C([O-])c1ccc(NC(=O)c2cn(-c3ccccc3)nc2-c2ccc(Cl)cc2)cc1` reads 4.2.
The result for `CN1C(=O)N(C[C@H](C(=O)NO)[C@@H](CC2CCCC2)C(=O)N2CCCCC2)C(=O)C1(C)C` reads 9.01; that for `N#Cc1ncc2cc(COc3cccc(CCC(=O)[O-])c3)n(CCC3CCCCC3)c2n1`, 4.5; that for `CCOC(=O)c1c(C)cc2nc(COC(=O)NCCO)n(-c3ccccc3S(=O)(=O)NC)c(=O)c2c1C`, 10.6.
`O=c1[nH]c2c(Cc3nn[n-]n3)c3ccccc3n2c2ccccc12` came in with a pKa of 4.42.
To `Cc1c(-c2ccccc2)c(=O)oc2cc(O)ccc12` belongs 7.74; to `CC(C)[NH+](CCc1c[nH]c2ccccc12)Cc1ccc(CCC(=O)N=O)cc1`, 8.66.
The result for `Cc1ccc2c(=O)c3cccc(CC(=O)[O-])c3oc2c1C` reads 3.8.
The molecule `CC(C)(C)[NH2+]C[C@H](O)c1cc(Cl)c(N)c(Cl)c1` yielded a pKa of 9.7.
Regarding `Cc1ncccc1Oc1ncnc(OC2CCN(C(=O)OC(C)C)CC2)c1C`, the pKa came to 4.18.
`O=C([O-])COc1ccc(Cl)cc1C1CCCCC1` came in with a pKa of 3.51.
The result for `CCC1CCCCN1C(=O)c1cnc(Nc2ccc(C)nc2)c(Cl)c1` (configuration not stated) reads 5.3; that for `C[NH+](CCC(=O)N1CCN(c2ccc(F)c(F)c2)CC1)CCC1c2ccccc2Oc2ccccc21`, 7.9; that for `COc1cc(CN(CC(=O)NCc2ccccc2Cl)S(=O)(=O)c2ccc(CN3CC[NH+](C)CC3)cc2)ccc1OCC(C)C`, 7.17.
In turn, `COc1cccc(OC)c1-c1ccc(C[C@H](NC(=O)c2c(Cl)cccc2Cl)C(=O)[O-])cc1` showed a pKa of 3.41.
With `Brc1ccc(C2CN3C=CSC3=[NH+]2)cc1` (configuration not stated), the pKa came out at 8.55.
To `Cc1ncc(-c2ccc(C(F)(F)F)cc2)c(NC2CCCCCC2)n1` belongs 6.
To `CS(=O)(=O)c1ccc(C(=O)Nc2ccc(Cl)c(-c3ccccn3)c2)c(Cl)c1` belongs 3.84; to `COc1ccc(SCCc2ccncc2)cc1`, 5.6; to `Cc1cccc(C)c1C(=O)N1CCC(C)([NH+]2CCC(N(c3ccccc3)c3ccccc3)CC2)CC1`, 8.35.
The molecule `Fc1ccc2c(/C=C/c3nn[n-]n3)c[nH]c2c1` yielded a pKa of 4.94.
The result for `C=CCNc1ccc2c(c1)c(-c1ccc(C(C)C)cc1)nc(=O)n2C(C)C` reads 2.9; that for `COc1ccc(N2CCc3c(-n4ccc(N5CCNC5=O)n4)cc(C)nc32)c(C)c1`, 6.37; that for `CC[C@H](C(=O)NO)[C@H](C(=O)N1CCCC[C@H]1C(=O)NC)c1ccc(Cl)cc1`, 9.2.
The result for `CN(CCO)c1cc2c(=O)n(NS(C)(=O)=O)c(=O)[nH]c2cc1C(F)(F)F` reads 8.3.
The result for `O=C(Nc1cccc2cnccc12)c1ccc(-c2ccccc2)cc1` reads 4.1; that for `Cc1nc(-n2ccc([O-])cc2=O)sc1C(=O)NCc1ccccc1`, 5.2.
Molecule `Clc1ccc(OCc2nn[n-]n2)c(C2CCCCC2)c1` had a pKa of 3.87.
To `CS(=O)(=O)Nn1c(=O)[nH]c2cc(C(F)(F)F)c(N3CCOCC3)cc2c1=O` belongs 8.35; to `COc1ccnc(N2CCC3(CCCN(Cc4c[nH]c5ccccc45)C3=O)CC2)n1`, 5.28.
The result for `CC(C)Cn1cnc2c(N)nc3ccccc3c21` reads 7.24; that for `O=C1c2ccccc2-[n+]2ccc3c([nH]c4ccccc43)c21`, 8.7; that for `CCOCC(=O)N1CCC(CNc2nc3c(s2)CCOc2ccc(F)cc2-3)CC1`, 3.7.
The result for `O=S(=O)(c1ccccc1)N(CC(F)(F)F)c1ccc(C(O)(C(F)(F)F)C(F)(F)F)cc1` reads 8.2; that for `CC1CCCN(C(=O)c2ccc(Nc3ccc(Cl)cc3)nc2)C1` (configuration not stated), 3.4.
As for `O=C1NC(=O)C(c2c[nH]c3ccccc23)=C1c1nc(N2CCOCC2)nc2ccccc12`, the pKa amounted to 9.3.
On to `CC(C)(C)Cn1c(Cc2ccc(NS(N)(=O)=O)cc2)cc2cnc(C#N)nc21`, for which the pKa came to 9.3.
Regarding `C[NH+](CCC(=O)N1CCN(c2ccc(F)c(F)c2)CC1)CCC1c2ccccc2-c2ccccc21`, the pKa came out at 7.8.
The result for `CN1c2ccc(C#N)cc2N=C(c2ccc(C(=O)[O-])c(F)c2)c2cc3c(cc21)C(C)(C)CCC3(C)C` reads 3.4; that for `COc1ccc(CNC(=O)[C@@H](NC(=O)[C@H](Cc2ccc(OC)c(OC)c2)NC(=O)Cc2cccc(Oc3ccccc3)c2)C(C)C)c(O)c1`, 10.9; that for `CC(=O)N1CCN(c2ccc(OCc3cc4cnc(C#N)nc4n3CCC3CCCCC3)cc2)CC1`, 3.3.
The result for `Cn1c(=O)n(NS(C)(=O)=O)c(=O)c2ccc(Cl)cc21` reads 6.8; that for `CCN(Cc1ccccc1)c1ccccc1`, 5.8.
The result for `CC(=O)N1CCN(c2ccc(OCc3cc4cnc(C#N)nc4n3CCC3CCC(F)(F)CC3)cc2)CC1` reads 3.6.
Regarding `CC(C)(C)Cn1c(CN2C(=O)CC3(CC[NH2+]CC3)C2=O)cc2cnc(C#N)nc21`, the pKa came to 9.2.
The result for `Cc1nc2cccc(C(F)(F)F)c2c(=O)n1-c1ccc(OC2CC[NH+](C3CCC3)CC2)cc1` reads 9; that for `CC(=O)Nc1cccc2c1c(Sc1ccc(Cl)cc1)c(C)n2CC(=O)[O-]`, 2.92.
For the molecule `CC(C)(C)c1ccc(S(=O)(=O)Nc2ccc(Cl)cc2C(=O)c2cc[n+]([O-])cc2)cc1`, the pKa was 6.87.
To `COc1cc(C(C)O)ccc1OCCC[NH+]1CCC(c2noc3cc(F)ccc23)CC1` (configuration not stated) belongs 8.25; to `COc1ccc(OC)c(CNc2ccc3nc(N)nc(N)c3c2Cl)c1`, 7.1; to `Cc1nc[n+]([O-])c(C)c1C(=O)N1CCC(C)([NH+]2CCC(N(c3ccccc3)c3ccccc3)CC2)CC1`, 8.5.
As to `Cc1c(CC(=O)[O-])c2cccnc2n1S(=O)(=O)c1ccc(Cl)cc1`, the pKa came out at 3.86.
To `N#Cc1ncc2cc(COc3ccc(C(=O)[O-])cc3)n(CCC3CCCCC3)c2n1` belongs 4.2; to `CNC(=O)c1ccccc1Nc1nc(Nc2ccc(N3CCOCC3)cc2OC)ncc1Cl`, 4.27; to `NS(=O)(=O)Oc1ccc2nc(C=C3C4CC5CC(C4)CC3C5)oc2c1`, 8.26.
Consider `O=C1CN=C(c2ccccc2)c2cc3ccccc3cc2N1`, for which the pKa turned out to be 3.8.
To `CNC(=O)c1c(NCC2CCC3(CCC3)CC2)nc(C#N)nc1OCC1CC[NH+](C)CC1` belongs 10.7; to `CC/C(=C(\c1ccccc1)c1ccc(/C=C/C(=O)[O-])cc1)c1ccccc1`, 4.26; to `C/C(=C\c1cccc(C)n1)[C@@H]1C[C@@H]2O[C@]2(C)CCC[C@H](C)[C@H](O)[C@@H](C)C(=O)C(C)(C)[C@@H](O)CC(=O)O1`, 5.5.
To `CC(C)COC(=O)Nc1ccc(-c2cnc3c(-c4ccc(N5CC[NH+](C)CC5)cc4)cnn3c2N)cc1` belongs 8.2.
In turn, `CC(C)(C)OC(=O)N1CCC(C(=O)NS(=O)(=O)c2c(Cl)sc(Cl)c2Br)CC1` returned a pKa of 2.1.
`Cc1ccc(-c2ccc3c(c2)C=C(C(=O)Nc2ccc(C[NH+](C)C4CCOCC4)cc2)CCC3)cc1` yielded a pKa of 8.3.
To `O=C([O-])COc1ccc(Cl)cc1C1CCCCCC1` belongs 3.48.
Molecule `[NH3+]C(CO)c1ccccc1` (configuration not stated) registered a pKa of 8.4.
The result for `Cc1ccc(Nc2c(F)cccc2Cl)c(CC(=O)[O-])c1` reads 4.2; that for `COc1cc(C(C)=O)ccc1OCCC[NH+]1CCC(c2noc3cc(F)ccc23)CC1`, 8.2; that for `O=C([O-])c1ccc(-c2ccccc2)cc1`, 3.9.
To `Cc1onc(-c2ccccc2)c1-c1ccc(S(N)(=O)=O)cc1` belongs 10.

In general, pKa refers to the negative logarithm of the acid dissociation constant. Low values mean a group that gives up its proton readily, high ones a group that holds its proton tightly.
